This is an account of results in patent US11661431B2, “Thienopyrrole compounds” (Gilead Sciences, Inc., priority 2021, dated 2023).

One assay deals with TLR8 (Homo sapiens (Human), UniProt Q9NR97). The assay can be described thus: TLR8 human peripheral blood mononuclear cell (PBMC) cell-based assay (Compound A as agonist; TNFα and IL12p40 readout). The conditions noted are these: human PBMCs, TLR8 agonist Compound A at 800 nM, 6 hours, antagonist potency; read-out: TLR-8 EC50. On the procedure:
After counting, the cell density was adjusted to 2 million cells/ml and incubated for 1 hour at 37° C., 5% CO2 for recovery. Following the recovery, the cells were plated by adding 50 μl per well (100,000 cells) to 384-well cell culture plates (Greiner) containing 250 nl of test antagonists in 100% DMSO per well, in a 10 points dose response in quadruplicates. PBMCs were incubated in the presence of antagonists for one hour at 37° C., 5% CO2 before being stimulated with TLR8 agonist. […] PBMCs were incubated in the presence of antagonist and the TLR8 agonist for an additional 6 hours at 37° C., 5% CO2. At the end of the incubation, the cell culture plates were centrifuged at 500 g for 5 min, and the cell culture supernatant was collected. The level of cytokines (TNFα and IL12p40) in the supernatant was measured by electrochemiluminescence immunoassays (Mesoscale Discovery) following manufacturer's recommended protocols.

For a further assay, the target named is TLR7 (Homo sapiens (Human), UniProt Q9NYK1). In words: TLR7 human peripheral blood mononuclear cell (PBMC) cell-based assay (GS-986 as agonist; IL-6 and IFNα readout). The note with it: human PBMCs, TLR7 agonist GS-986 at 400 nM, 6 hours, antagonist potency; read-out: TLR-7 EC50. The method, then: Human peripheral blood mononuclear cells (PBMCs) consist of lymphocytes, monocytes and dendritic cells that express TLR7, TLR8 and TLR9. These cells respond to TLR7, TLR8 and TLR9 ligand stimulation and produce cytokines and chemokines in vitro and in vivo. Human PBMCs are therefore suitable to be used in a cell-based assay to assess the in vitro potency of a TLR 7, 8, and/or 9 antagonist.
Sequence of TLR7 (Q9NYK1 27-1049): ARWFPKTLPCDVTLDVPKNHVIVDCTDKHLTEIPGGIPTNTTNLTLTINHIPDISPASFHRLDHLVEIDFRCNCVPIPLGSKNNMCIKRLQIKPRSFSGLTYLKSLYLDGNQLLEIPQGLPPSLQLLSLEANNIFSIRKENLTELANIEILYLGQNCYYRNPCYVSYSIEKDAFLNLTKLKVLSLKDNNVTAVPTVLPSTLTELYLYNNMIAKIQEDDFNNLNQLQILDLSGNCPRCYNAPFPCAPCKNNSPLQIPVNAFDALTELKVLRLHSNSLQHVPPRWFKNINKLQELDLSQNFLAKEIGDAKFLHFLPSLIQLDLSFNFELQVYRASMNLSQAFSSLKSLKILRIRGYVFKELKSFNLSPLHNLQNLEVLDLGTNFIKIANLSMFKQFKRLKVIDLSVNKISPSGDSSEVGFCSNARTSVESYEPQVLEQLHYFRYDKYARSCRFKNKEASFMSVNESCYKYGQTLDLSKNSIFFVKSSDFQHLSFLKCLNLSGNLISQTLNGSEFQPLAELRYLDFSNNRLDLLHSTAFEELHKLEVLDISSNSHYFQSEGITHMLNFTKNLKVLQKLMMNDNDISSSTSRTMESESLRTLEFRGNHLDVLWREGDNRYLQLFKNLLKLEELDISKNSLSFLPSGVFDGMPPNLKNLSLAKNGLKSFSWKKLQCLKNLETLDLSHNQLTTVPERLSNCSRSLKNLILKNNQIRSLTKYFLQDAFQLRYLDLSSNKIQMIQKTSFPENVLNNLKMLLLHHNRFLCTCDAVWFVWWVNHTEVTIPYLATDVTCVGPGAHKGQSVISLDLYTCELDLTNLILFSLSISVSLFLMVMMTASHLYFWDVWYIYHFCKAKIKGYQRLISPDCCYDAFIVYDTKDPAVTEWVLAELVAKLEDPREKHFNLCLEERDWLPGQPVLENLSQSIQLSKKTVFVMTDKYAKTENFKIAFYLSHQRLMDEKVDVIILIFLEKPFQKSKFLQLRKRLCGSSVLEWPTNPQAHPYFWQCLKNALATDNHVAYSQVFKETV
After counting, the cell density was adjusted to 2 million cells/ml and incubated for 1 hour at 37° C., 5% CO2 for recovery. Following the recovery, the cells were plated by adding 50 μl per well (100,000 cells) to 384-well cell culture plates (Greiner) containing 250 nl of test antagonists in 100% DMSO per well, in a 10 points dose response in quadruplicates. PBMCs were incubated in the presence of test antagonists for one hour at 37° C., 5% CO2 before being stimulated with a TLR7 or TLR9agonist. […] PBMCs were incubated in the presence of the test antagonist and the TLR7 (or TLR9) agonist for an additional 6 hours at 37° C., 5% CO2. At the end of the incubation, the cell culture plates were centrifuged at 500 g for 5 min, and the cell culture supernatant was collected. The level of cytokines (IL-6 and IFNα) in the supernatant was measured by electrochemiluminescence immunoassays (Mesoscale Discovery) following manufacturer's recommended protocols.

Molecules are shown by their SMILES.

Sequence of TLR8 (Q9NR97 27-1041): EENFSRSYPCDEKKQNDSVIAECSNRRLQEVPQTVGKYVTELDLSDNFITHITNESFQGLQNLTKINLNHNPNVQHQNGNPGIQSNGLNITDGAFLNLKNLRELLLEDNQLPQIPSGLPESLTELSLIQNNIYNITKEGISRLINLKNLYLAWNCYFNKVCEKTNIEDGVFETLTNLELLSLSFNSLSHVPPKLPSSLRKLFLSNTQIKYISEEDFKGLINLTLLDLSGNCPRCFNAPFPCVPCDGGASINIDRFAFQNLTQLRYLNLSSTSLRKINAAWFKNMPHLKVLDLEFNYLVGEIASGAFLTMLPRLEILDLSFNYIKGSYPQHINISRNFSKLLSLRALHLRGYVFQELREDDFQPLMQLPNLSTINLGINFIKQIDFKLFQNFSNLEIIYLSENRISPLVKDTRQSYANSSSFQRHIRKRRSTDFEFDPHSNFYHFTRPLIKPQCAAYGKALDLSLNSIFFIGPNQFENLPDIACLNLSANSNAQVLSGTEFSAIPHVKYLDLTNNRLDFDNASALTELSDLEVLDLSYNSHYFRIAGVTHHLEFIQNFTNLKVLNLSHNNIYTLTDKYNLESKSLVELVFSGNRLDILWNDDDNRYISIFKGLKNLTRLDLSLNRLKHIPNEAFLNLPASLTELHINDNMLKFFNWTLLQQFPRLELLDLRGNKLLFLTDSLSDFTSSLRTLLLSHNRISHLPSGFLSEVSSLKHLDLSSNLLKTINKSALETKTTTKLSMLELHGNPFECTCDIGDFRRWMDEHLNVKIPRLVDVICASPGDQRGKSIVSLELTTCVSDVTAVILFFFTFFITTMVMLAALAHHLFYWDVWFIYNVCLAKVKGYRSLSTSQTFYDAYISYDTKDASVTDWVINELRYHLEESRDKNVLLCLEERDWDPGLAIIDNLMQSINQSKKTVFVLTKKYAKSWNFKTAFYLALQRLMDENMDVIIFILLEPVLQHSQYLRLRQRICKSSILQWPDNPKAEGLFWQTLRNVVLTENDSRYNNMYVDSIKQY

One may read the EC50 as the midpoint of the concentration-response curve. As for `Cc1c(C2CCNCC2)sc2[nH]c(-c3cc(C)c4ncnn4c3)c(C(C)C)c12` [Example 8, 4-Isopropyl-3-methyl-5-(8-methyl-[1,2,4]triazolo[1,5-a]pyridin-6-yl)-2-(piperidin-4-yl)-6H-thieno[2,3-b]pyrrole], the EC50 on TLR8 was found to be 4.92 nM; at TLR7 it was 0.08 nM.

Consider `Cc1c(C2CCN(CC(N)=O)CC2)sc2[nH]c(-c3cc(C)c4ncnn4c3)c(C(C)C)c12` [Example 9, 2-(4-(4-isopropyl-3-methyl-5-(8-methyl-[1,2,4]triazolo[1,5-a]pyridin-6-yl)-6H-thieno[2,3-b]pyrrol-2-yl)piperidin-1-yl)acetamide], for which the EC50 at TLR8 stood at 17.1 nM; on TLR7, 0.64 nM.

On to `Cc1c(C2CCN(C(=O)CN(C)C)CC2)sc2[nH]c(-c3cc(C)c4ncnn4c3)c(C(C)C)c12` [Example 10, 2-(dimethylamino)-1-(4-(4-isopropyl-3-methyl-5-(8-methyl-[1,2,4]triazolo[1,5-a]pyridin-6-yl)-6H-thieno[2,3-b]pyrrol-2-yl)piperidin-1-yl)ethan-1-one], for which the EC50 at TLR8 is 9.29 nM; on TLR7, 0.18 nM.

`Cc1c(C2CCN(CC3(C)COC3)CC2)sc2[nH]c(-c3cc(C)c4ncnn4c3)c(C(C)C)c12` [Example 11]: the EC50 on TLR8 came out at 14.3 nM; on TLR7, 2.47 nM.

Regarding `Cc1c(C2CCN(CCO)CC2)sc2[nH]c(-c3cc(C)c4ncnn4c3)c(C(C)C)c12` [Example 13, 2-(4-(4-isopropyl-3-methyl-5-(8-methyl-[1,2,4]triazolo[1,5-a]pyridin-6-yl)-6H-thieno[2,3-b]pyrrol-2-yl)piperidin-1-yl)ethan-1-ol], the figures for the EC50 on TLR8 and at TLR7 were 7.11 nM and 1.27 nM, respectively.

As for `Cc1c(C2CCN(C(=O)[C@@H]3CCCN3)CC2)sc2[nH]c(-c3cc(C)c4ncnn4c3)c(C(C)C)c12` [Example 14], the 50% effective concentration (EC50) turned out to be 13.8 nM at TLR8 and 0.21 nM at TLR7.

Take `Cc1c(C2CCN(C(=O)[C@H]3CCCN3)CC2)sc2[nH]c(-c3cc(C)c4ncnn4c3)c(C(C)C)c12` [Example 15]: the half-maximal effective concentration (EC50) came out at 13.4 nM on TLR8 and 0.12 nM on TLR7.

As to `Cc1c(C2CCN(C(=O)C3CNC3)CC2)sc2[nH]c(-c3cc(C)c4ncnn4c3)c(C(C)C)c12` [Example 16], the EC50 at TLR8 amounted to 46.1 nM; on TLR7, 1.63 nM.

As for `Cc1c(C2CCN(C(=O)[C@H]3CCCN3C)CC2)sc2[nH]c(-c3cc(C)c4ncnn4c3)c(C(C)C)c12` [Example 18], the EC50 was 10.9 nM at TLR8 and 0.05 nM at TLR7.

As for `Cc1c(C2CCN(C(=O)[C@@H]3CCCN3C)CC2)sc2[nH]c(-c3cc(C)c4ncnn4c3)c(C(C)C)c12` [Example 19], the values for the EC50 at TLR8 and at TLR7 were 7.76 nM and 0.43 nM, respectively.

`Cc1c(-c2ccc(N3CCNCC3)nc2)sc2[nH]c(-c3cc(C)c4ncnn4c3)c(C(C)C)c12` [Example 20, 4-isopropyl-3-methyl-5-(8-methyl-[1,2,4]triazolo[1,5-a]pyridin-6-yl)-2-(6-(piperazin-1-yl)pyridin-3-yl)-6H-thieno[2,3-b]pyrrole]: the EC50 at TLR8 turned out to be 12 nM; on TLR7, 0.28 nM.

As for `Cc1c(-c2cnc3c(c2)CNCC3)sc2[nH]c(-c3cc(C)c4ncnn4c3)c(C(C)C)c12` [Example 21], the EC50 on TLR8 amounted to 1.25 nM; on TLR7, 1.08 nM.

For the molecule `Cc1c(-c2ccc3[nH]c([C@H]4N[C@@H]5CC[C@H]4C5)nc3c2)sc2[nH]c(-c3cc(C)c4ncnn4c3)c(C(C)C)c12` [Example 22], the EC50 came to 26.1 nM on TLR8 and 1.27 nM on TLR7.

With `Cc1c(-c2ccc(N3CCNCC3)cc2)sc2[nH]c(-c3cc(C)c4ncnn4c3)c(C(C)C)c12` [Example 23], the concentration giving a half-maximal response (EC50) at TLR8 stood at 16.1 nM; at TLR7 it was 0.56 nM.

For `Cc1c(C2CCC3(CC2)CNC3)sc2[nH]c(-c3cc(C)c4ncnn4c3)c(C(C)C)c12` [Example 24], the values for the EC50 at TLR8 and on TLR7 were 8.98 nM and 0.29 nM, respectively.

On to `Cc1c(C2CCC3(CC2)CN(CC(N)=O)C3)sc2[nH]c(-c3cc(C)c4ncnn4c3)c(C(C)C)c12` [Example 25], for which the values for the concentration for a half-maximal effect (EC50) at TLR8 and at TLR7 were 2.95 nM and 0.11 nM, respectively.

Turning to `Cc1cc(-c2[nH]c3sc(C4CCN(CC(N)=O)CC4)cc3c2C(C)C)cn2ncnc12` [Example 26], the EC50 at TLR8 came to 1.61 nM; at TLR7, 0.68 nM.

Consider `Cc1c(C2CCN(C(C)C(N)=O)CC2)sc2[nH]c(-c3cc(C)c4ncnn4c3)c(C(C)C)c12` (stereo not shown) [Example 27], for which the values for the EC50 on TLR8 and on TLR7 were 8.43 nM and 0.25 nM, respectively.

For `CNC(=O)CN1CCC(c2sc3[nH]c(-c4cc(C)c5ncnn5c4)c(C(C)C)c3c2C)CC1` [Example 28], the EC50 on TLR8 is 19.7 nM; on TLR7 it was 1.06 nM.

As for `Cc1c(C2CC3(C2)CN(CC(N)=O)C3)sc2[nH]c(-c3cc(C)c4ncnn4c3)c(C(C)C)c12` [Example 29], the EC50 on TLR8 is 0.21 nM; on TLR7, 0.94 nM.

On to `Cc1c(C2CC3COCC(C2)N3CC(N)=O)sc2[nH]c(-c3cc(C)c4ncnn4c3)c(C(C)C)c12` (stereo not shown) [Example 30], for which the half-maximal effective concentration (EC50) at TLR8 turned out to be 257 nM; at TLR7, 3.42 nM.

As to `Cc1c(-c2[nH]c3sc(C4CC5(C4)CN(CC(N)=O)C5)c(C)c3c2C(C)C)cn2ncnc2c1C` [Example 31], the EC50 at TLR8 stood at 0.05 nM; at TLR7 it was 3.15 nM.

Take `Cc1c(C2CCN(C(=O)N3CCNCC3)CC2)sc2[nH]c(-c3cc(C)c4ncnn4c3)c(C(C)C)c12` [Example 32]: the half-maximal effective concentration (EC50) on TLR8 was 8.32 nM; on TLR7, 0.05 nM.

With `Cc1c(C2CC3COCC(C2)N3CCO)sc2[nH]c(-c3cc(C)c4ncnn4c3)c(C(C)C)c12` (stereo not shown) [Example 33], the EC50 at TLR8 came to 45.9 nM; at TLR7 it was 7.19 nM.

As for `Cc1c(C2CCN(C(=O)CN3CCCC3)CC2)sc2[nH]c(-c3cc(C)c4ncnn4c3)c(C(C)C)c12` [Example 34], the EC50 at TLR8 was found to be 4.45 nM; on TLR7 it was 0.06 nM.

With `Cc1c(C2CCN(C(=O)[C@H]3COCCN3)CC2)sc2[nH]c(-c3cc(C)c4ncnn4c3)c(C(C)C)c12` [Example 35], the results for the EC50 at TLR8 and at TLR7 were 13 nM and 0.1 nM, respectively.

With `Cc1c(C2CCN(C(=O)[C@@H]3COCCN3)CC2)sc2[nH]c(-c3cc(C)c4ncnn4c3)c(C(C)C)c12` [Example 36], the EC50 is 20.8 nM at TLR8 and 0.54 nM at TLR7.

Consider `Cc1c(C2CCC3(CC2)CN(C(=O)[C@@H]2CCCN2)C3)sc2[nH]c(-c3cc(C)c4ncnn4c3)c(C(C)C)c12` [Example 37], for which the values for the EC50 at TLR8 and at TLR7 were 9.95 nM and 0.2 nM, respectively.

As to `Cc1c(C2CCC3(CC2)CN(C(=O)[C@H]2CCCN2)C3)sc2[nH]c(-c3cc(C)c4ncnn4c3)c(C(C)C)c12` [Example 38], the values for the EC50 at TLR8 and on TLR7 were 10.4 nM and 0.22 nM, respectively.

With `Cc1c(C2CCN(C(=O)[C@H]3CC(F)(F)CN3)CC2)sc2[nH]c(-c3cc(C)c4ncnn4c3)c(C(C)C)c12` [Example 39], the EC50 on TLR8 is 125 nM; on TLR7, 1.18 nM.

On to `Cc1c(C2CCN(C(=O)C34CC(CN3)C4)CC2)sc2[nH]c(-c3cc(C)c4ncnn4c3)c(C(C)C)c12` [Example 40], for which the EC50 at TLR8 stood at 3.14 nM; on TLR7, 0.07 nM.

Turning to `Cc1c(C2CCN(C(=O)C34CC(F)(CN3)C4)CC2)sc2[nH]c(-c3cc(C)c4ncnn4c3)c(C(C)C)c12` [Example 41], the EC50 on TLR8 amounted to 12.3 nM; at TLR7 it was 0.35 nM.

Regarding `Cc1c(C2CCN(C(=O)[C@H]3C[C@@H](F)CN3)CC2)sc2[nH]c(-c3cc(C)c4ncnn4c3)c(C(C)C)c12` [Example 42], the EC50 at TLR8 was 25.7 nM; at TLR7, 0.78 nM.

As to `Cc1c(C2CCN(C(=O)[C@H]3C[C@H](F)CN3)CC2)sc2[nH]c(-c3cc(C)c4ncnn4c3)c(C(C)C)c12` [Example 43], the EC50 on TLR8 stood at 19 nM; at TLR7, 0.32 nM.

For `CO[C@H]1CN[C@@H](C(=O)N2CCC(c3sc4[nH]c(-c5cc(C)c6ncnn6c5)c(C(C)C)c4c3C)CC2)C1` [Example 44], the results for the EC50 on TLR8 and at TLR7 were 13.1 nM and 0.37 nM, respectively.

With `CO[C@@H]1CN[C@@H](C(=O)N2CCC(c3sc4[nH]c(-c5cc(C)c6ncnn6c5)c(C(C)C)c4c3C)CC2)C1` [Example 45], the results for the EC50 on TLR8 and at TLR7 were 15.6 nM and 0.13 nM, respectively.

For `Cc1c(C2CCN(C(=O)[C@H]3CNCCO3)CC2)sc2[nH]c(-c3cc(C)c4ncnn4c3)c(C(C)C)c12` [Example 46], the EC50 on TLR8 is 13 nM; on TLR7, 0.59 nM.

As for `Cc1c(C2CCN(C(=O)[C@@H]3CNCCO3)CC2)sc2[nH]c(-c3cc(C)c4ncnn4c3)c(C(C)C)c12` [Example 47], the 50% effective concentration (EC50) was determined as 14.1 nM at TLR8 and 0.24 nM at TLR7.
